Results as given in patent publication US10168342B2, “Lipid probes and uses thereof” (THE SCRIPPS RESEARCH INSTITUTE, priority 2015, dated 2019).

Tests used:
Test in all cases: In situ competitive SILAC profiling with A-DA probe in (PMA-stimulated) A549 cells
Details in all cases: A549 cells, A-DA probe
[1] = biological target: T1, A-DA lipid probe targets in A549 cells (Homo sapiens, UniProt Q8NF37)
T1 sequence (Q8NF37 1-534): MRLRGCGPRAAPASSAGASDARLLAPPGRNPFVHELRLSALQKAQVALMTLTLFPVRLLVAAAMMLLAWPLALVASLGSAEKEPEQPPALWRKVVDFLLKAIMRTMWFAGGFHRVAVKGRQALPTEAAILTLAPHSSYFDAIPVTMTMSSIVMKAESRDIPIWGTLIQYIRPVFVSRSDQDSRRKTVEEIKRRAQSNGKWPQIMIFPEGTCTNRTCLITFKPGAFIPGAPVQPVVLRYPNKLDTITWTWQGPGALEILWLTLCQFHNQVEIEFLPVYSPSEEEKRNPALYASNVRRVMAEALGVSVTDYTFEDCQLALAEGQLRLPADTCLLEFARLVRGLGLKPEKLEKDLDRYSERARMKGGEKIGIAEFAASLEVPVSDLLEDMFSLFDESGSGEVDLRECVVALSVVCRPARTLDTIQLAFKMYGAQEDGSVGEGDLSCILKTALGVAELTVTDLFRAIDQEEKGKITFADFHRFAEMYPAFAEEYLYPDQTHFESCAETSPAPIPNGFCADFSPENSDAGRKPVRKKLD

[2] = biological target: T2, A-DA lipid probe targets in A549 cells (Homo sapiens, UniProt Q53GQ0)
T2 sequence (Q53GQ0 1-312): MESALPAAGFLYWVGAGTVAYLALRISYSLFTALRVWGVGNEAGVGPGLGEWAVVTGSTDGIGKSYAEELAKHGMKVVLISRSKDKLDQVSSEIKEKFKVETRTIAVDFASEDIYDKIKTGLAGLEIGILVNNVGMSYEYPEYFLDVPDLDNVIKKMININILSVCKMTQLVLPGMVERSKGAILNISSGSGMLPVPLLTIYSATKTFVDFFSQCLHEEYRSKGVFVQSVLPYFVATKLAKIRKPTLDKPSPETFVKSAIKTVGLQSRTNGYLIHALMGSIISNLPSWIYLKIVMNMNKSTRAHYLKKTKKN

[3] = biological target: T3, A-DA lipid probe targets in A549 cells (Homo sapiens, UniProt Q6P1A2)
T3 sequence (Q6P1A2 1-487): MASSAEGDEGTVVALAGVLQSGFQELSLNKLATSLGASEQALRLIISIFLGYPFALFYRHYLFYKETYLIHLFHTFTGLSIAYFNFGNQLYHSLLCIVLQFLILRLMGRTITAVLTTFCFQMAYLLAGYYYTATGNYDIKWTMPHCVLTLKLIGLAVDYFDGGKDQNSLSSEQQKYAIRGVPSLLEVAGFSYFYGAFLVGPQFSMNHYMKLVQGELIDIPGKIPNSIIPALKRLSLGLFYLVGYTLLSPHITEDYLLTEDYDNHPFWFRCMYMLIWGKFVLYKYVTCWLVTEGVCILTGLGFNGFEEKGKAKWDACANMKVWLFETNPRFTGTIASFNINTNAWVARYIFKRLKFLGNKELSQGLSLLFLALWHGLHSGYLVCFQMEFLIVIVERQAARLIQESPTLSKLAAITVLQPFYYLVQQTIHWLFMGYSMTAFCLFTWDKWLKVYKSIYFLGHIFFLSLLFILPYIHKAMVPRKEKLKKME

[4] = biological target: A-DA lipid probe targets in A549 cells (Homo sapiens, UniProt Q9Y639)
[5] = biological target: T4, A-DA lipid probe targets in A549 cells (Homo sapiens, UniProt Q96KC8)
T4 sequence (Q96KC8 48-554): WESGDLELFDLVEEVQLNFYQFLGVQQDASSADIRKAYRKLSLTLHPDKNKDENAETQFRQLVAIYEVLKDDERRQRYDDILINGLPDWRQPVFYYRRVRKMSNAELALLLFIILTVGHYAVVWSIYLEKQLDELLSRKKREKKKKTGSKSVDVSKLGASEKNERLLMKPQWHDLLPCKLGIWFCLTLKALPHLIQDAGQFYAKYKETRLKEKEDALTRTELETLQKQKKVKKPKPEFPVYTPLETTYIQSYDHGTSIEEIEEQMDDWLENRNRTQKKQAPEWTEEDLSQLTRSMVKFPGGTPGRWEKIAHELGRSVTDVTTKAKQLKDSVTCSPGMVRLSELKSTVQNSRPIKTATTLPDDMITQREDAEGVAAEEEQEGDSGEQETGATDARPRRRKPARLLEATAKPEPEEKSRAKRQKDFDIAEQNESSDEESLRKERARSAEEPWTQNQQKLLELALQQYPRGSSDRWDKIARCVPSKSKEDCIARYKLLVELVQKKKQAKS

[6] = biological target: T5, A-DA lipid probe targets in A549 cells (Homo sapiens, UniProt Q9HAW7)
T5 sequence (Q9HAW7 26-530): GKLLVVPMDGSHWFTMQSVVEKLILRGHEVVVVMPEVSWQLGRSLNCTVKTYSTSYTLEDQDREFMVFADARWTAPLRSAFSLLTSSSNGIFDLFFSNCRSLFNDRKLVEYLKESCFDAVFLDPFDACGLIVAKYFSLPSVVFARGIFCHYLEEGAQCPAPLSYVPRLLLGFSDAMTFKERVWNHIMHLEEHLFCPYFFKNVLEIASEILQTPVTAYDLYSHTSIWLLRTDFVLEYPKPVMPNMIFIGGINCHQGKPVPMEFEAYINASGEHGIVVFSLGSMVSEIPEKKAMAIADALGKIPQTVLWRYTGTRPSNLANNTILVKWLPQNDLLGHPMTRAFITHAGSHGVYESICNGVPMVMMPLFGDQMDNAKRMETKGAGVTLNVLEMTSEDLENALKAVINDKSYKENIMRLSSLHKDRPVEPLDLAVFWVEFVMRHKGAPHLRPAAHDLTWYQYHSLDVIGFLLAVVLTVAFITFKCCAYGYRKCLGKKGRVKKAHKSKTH

A-DA lipid probe targets in A549 cells (Homo sapiens, UniProt Q9Y639), sequence (Q9Y639 29-398): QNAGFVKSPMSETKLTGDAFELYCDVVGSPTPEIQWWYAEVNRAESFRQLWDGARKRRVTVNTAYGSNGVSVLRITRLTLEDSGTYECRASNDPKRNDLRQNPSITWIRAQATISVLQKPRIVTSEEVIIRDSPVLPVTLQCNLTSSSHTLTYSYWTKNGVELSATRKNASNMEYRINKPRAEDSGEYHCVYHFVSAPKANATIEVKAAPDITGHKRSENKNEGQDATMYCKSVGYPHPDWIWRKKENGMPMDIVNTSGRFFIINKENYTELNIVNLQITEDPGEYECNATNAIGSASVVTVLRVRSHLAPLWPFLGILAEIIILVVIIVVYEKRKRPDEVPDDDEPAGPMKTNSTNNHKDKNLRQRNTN

SMILES | SILAC ratio, LPCAT1 (Q8NF37) ([1]; competitor 25 μM) | SILAC ratio, HSD17B12 (Q53GQ0) ([2]; competitor 25 μM) | SILAC ratio, LPCAT3 (Q6P1A2) ([3]; competitor 25 μM) | SILAC ratio, NPTN (Q9Y639) ([4]; competitor 25 μM) | SILAC ratio, DNAJC1 (Q96KC8) ([5]; competitor 25 μM) | SILAC ratio, UGT1A7 (Q9HAW7) ([6]; competitor 25 μM) | SILAC ratio, LPCAT1 (Q8NF37) ([1]; competitor 5 μM) | SILAC ratio, LPCAT1 (Q8NF37) ([1]; competitor 50 μM) | SILAC ratio, HSD17B12 (Q53GQ0) ([2]; competitor 5 μM) | SILAC ratio, HSD17B12 (Q53GQ0) ([2]; competitor 50 μM) | SILAC ratio, LPCAT3 (Q6P1A2) ([3]; competitor 5 μM) | SILAC ratio, LPCAT3 (Q6P1A2) ([3]; competitor 50 μM) | SILAC ratio, NPTN (Q9Y639) ([4]; competitor 5 μM) | SILAC ratio, NPTN (Q9Y639) ([4]; competitor 50 μM) | SILAC ratio, DNAJC1 (Q96KC8) ([5]; competitor 5 μM) | SILAC ratio, DNAJC1 (Q96KC8) ([5]; competitor 50 μM) | SILAC ratio, UGT1A7 (Q9HAW7) ([6]; competitor 5 μM) | SILAC ratio, UGT1A7 (Q9HAW7) ([6]; competitor 50 μM)
O=C(/C=C/c1cccnc1)NCCCCC1CCN(C(=O)c2ccccc2)CC1 [FK-866, reference compound] | 1.4 | 1.4 | 3.3 | 1.4 | 1.3 | 2.1 |  |  |  |  |  |  |  |  |  |  |  | 
C=CCN(C)CCCCCCOc1ccc(C(=O)c2ccc(Br)cc2)c(F)c1 [Ro488071] |  |  |  |  |  |  | 1.6 | 3.1 | 1.4 | 3.0 | 1.3 | 2.7 | 1.3 | 3.0 | 1.6 | 3.9 | 1.6 | 40.0
